Test results taken from ChEMBL document CHEMBL1134937, “Indoline and piperazine containing derivatives as a novel class of mixed D(2)/D(4) receptor antagonists. Part 2: asymmetric synthesis and biological evaluation” (Bioorg Med Chem Lett, 2002).

Key:
[1] = target: T1, Adrenergic receptor alpha-1 (Rattus norvegicus, UniProt P15823+P23944+P43140); test: Binding affinity towards Alpha-1 adrenergic receptor was determined by competitive displacement assays using rat brain homogenate with [3H]prazosin as the competitive ligand; format: tissue-based
T1 sequence (P15823 whole entry): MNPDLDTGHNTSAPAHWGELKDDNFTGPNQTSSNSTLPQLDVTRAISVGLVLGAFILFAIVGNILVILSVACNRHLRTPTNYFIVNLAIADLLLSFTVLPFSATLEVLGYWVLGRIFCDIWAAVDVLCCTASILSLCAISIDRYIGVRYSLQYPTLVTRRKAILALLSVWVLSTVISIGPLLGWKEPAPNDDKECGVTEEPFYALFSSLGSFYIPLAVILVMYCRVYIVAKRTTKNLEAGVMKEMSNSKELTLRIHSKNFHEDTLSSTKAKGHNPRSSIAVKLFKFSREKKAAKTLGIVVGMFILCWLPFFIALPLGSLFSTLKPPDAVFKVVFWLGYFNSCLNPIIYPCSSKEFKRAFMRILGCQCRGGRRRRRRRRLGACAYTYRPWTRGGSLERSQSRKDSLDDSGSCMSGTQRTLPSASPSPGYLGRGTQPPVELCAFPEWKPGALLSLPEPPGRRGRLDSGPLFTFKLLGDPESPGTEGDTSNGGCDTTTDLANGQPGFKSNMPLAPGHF
T1 sequence (P23944 whole entry): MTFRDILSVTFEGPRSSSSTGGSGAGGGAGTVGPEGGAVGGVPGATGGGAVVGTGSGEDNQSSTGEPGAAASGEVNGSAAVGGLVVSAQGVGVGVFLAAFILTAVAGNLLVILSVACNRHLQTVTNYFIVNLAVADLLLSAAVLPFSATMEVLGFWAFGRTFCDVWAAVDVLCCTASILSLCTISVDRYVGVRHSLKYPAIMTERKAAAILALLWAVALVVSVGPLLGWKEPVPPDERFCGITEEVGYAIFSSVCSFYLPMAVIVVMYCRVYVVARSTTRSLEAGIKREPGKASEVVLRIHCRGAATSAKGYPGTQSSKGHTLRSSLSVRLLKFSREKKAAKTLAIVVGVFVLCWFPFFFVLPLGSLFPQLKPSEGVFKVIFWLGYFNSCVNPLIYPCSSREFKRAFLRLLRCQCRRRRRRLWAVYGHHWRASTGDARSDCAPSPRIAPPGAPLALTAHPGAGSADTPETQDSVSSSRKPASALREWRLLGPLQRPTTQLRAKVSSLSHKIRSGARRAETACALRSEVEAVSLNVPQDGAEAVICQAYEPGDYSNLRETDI
T1 sequence (P43140 whole entry): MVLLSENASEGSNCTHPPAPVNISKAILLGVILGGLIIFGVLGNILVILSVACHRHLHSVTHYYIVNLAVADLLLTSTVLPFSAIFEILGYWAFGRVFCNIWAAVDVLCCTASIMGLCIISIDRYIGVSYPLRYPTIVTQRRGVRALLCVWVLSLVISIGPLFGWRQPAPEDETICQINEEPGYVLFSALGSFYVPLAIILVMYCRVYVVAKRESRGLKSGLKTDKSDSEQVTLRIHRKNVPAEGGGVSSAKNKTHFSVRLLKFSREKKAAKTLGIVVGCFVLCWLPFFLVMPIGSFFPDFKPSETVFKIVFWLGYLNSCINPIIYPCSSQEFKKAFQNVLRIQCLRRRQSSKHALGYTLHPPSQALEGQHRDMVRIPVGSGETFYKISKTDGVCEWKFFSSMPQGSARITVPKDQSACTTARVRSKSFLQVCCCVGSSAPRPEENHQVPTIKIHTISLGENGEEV

D(4) dopamine receptor = target: T2, D(4) dopamine receptor (Homo sapiens, UniProt P21917)
T2 sequence (P21917 whole entry): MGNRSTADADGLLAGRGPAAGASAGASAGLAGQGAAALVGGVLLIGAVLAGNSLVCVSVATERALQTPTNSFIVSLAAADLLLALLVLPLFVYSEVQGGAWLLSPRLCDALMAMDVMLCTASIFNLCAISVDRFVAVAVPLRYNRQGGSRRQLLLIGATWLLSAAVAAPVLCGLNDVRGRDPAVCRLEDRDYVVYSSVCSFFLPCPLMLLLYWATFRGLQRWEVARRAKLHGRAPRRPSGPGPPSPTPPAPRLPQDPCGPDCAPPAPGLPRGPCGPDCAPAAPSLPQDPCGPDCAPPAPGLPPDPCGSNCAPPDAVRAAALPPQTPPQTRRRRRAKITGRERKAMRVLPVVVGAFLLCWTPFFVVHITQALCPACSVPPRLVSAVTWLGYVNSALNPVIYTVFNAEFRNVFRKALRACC
Description: Binding affinity towards Dopamine type 4 receptor was determined by competitive displacement assays using [3H]-YM 09151 as the competitive ligand

Rattus norvegicus [2] = test: Minimum effective dose required for significant dose dependent reduction of amphetamine-induced locomotor activity in male Sprague-Dawley rats on subcutaneous administration (30 min prior to receiving amphetamine 0.5 mg/kg); format: functional; settings: sc, read-out: MED
Rattus norvegicus [3] = species on record: Rattus norvegicus; test: Minimum effective dose required in the catalepsy experiment in rats; showed no significant effect at this dose; format: functional; settings: read-out: MED
Rattus norvegicus [4] = species on record: Rattus norvegicus; test: Minimum effective dose required in the catalepsy experiment in rats; format: functional; settings: read-out: MED

Row | Ki [1] [nM] | Ki (D(4) dopamine receptor) [nM] | Structure (SMILES) | minimal effective dose (Rattus norvegicus [2]) [mg/kg] | minimal effective dose (Rattus norvegicus [3]) [mg/kg] | minimal effective dose (Rattus norvegicus [4]) [mg/kg]
1 | > 10000 | 6 | C[C@@H]1Cc2ccccc2N1C(=O)CN1CCN(Cc2cc(F)c(Cl)cc2F)CC1 |  |  | 
2 | 980 | 5 | COc1ccc(Cl)cc1CN1CCN(CC(=O)N2c3ccccc3C[C@H]2C)CC1 |  |  | 
3 |  | 6 | C[C@@H]1Cc2ccccc2N1C(=O)CN1CCN(Cc2cccc(F)c2)CC1 |  |  | 
4 | 100 | 8 | COC(=O)[C@@H]1Cc2ccccc2N1C(=O)CN1CCN(Cc2ccc(C)cc2)CC1 |  |  | 
5 | 453 | 1760 | O=C(O)[C@@H]1Cc2ccccc2N1C(=O)CN1CCN(Cc2ccc(Cl)cc2)CC1 |  |  | 
6 | 1060 | 3 | COc1cc(Cl)ccc1CN1CCN(CC(=O)N2c3ccccc3C[C@H]2C)CC1 | > 4 |  | 
7 | > 1000 | 5 | COC(=O)[C@@H]1Cc2ccccc2N1C(=O)CN1CCN(Cc2ccc(Cl)cc2)CC1 |  |  | 
8 |  | > 1000 | O=C(NCc1ccccc1)[C@@H]1Cc2ccccc2N1C(=O)CN1CCN(Cc2ccc(Cl)cc2)CC1 |  |  | 
9 |  | 10 | CC(C)c1ccc(Cl)cc1CN1CCN(CC(=O)N2c3ccccc3C[C@H]2C)CC1 |  |  | 
10 |  |  | C[C@@H]1Cc2ccccc2N1C(=O)CN1CCN(Cc2ccc(Cl)cc2)CC1 | > 8 |  | 
11 | > 10000 | 27 | C[C@@H]1Cc2ccccc2N1C(=O)CN1CCN(Cc2ccccc2F)CC1 |  |  | 
12 | 807 | 2 | Cc1ccc(CN2CCN(CC(=O)N3c4ccccc4C[C@H]3C)CC2)cc1F |  |  | 
13 | 1660 | 29 | COc1ccc(OC)c(CN2CCN(CC(=O)N3c4ccccc4C[C@H]3C)CC2)c1 |  |  | 
14 | > 1000 | 12 | C[C@@H]1Cc2ccccc2N1C(=O)CN1CCN(Cc2ccc(F)c(F)c2Cl)CC1 |  |  | 
15 |  |  | Cc1ccc(CN2CCN(CC(=O)N3c4ccccc4C[C@H]3C)CC2)cc1 | > 4 |  | 
16 | 1330 | 3 | CC[C@@H]1Cc2ccccc2N1C(=O)CN1CCN(Cc2ccc(C)cc2)CC1 |  |  | 
17 | 1130 | 3 | C[C@@H]1Cc2ccccc2N1C(=O)CN1CCN(Cc2ccc3c(c2)OCO3)CC1 |  |  | 
18 | 1090 | 11 | CCOc1ccc(Cl)cc1CN1CCN(CC(=O)N2c3ccccc3C[C@H]2C)CC1 |  |  | 
19 | 2180 |  | C=C[C@@H]1Cc2ccccc2N1C(=O)CN1CCN(Cc2ccc(Cl)cc2)CC1 |  |  | 
20 |  |  | CN1CCN(C2=Nc3cc(Cl)ccc3Nc3ccccc32)CC1 [CLOZAPINE] | 1 | > 40 | 
21 |  |  | O=C(CCCN1CCC(O)(c2ccc(Cl)cc2)CC1)c1ccc(F)cc1 [HALOPERIDOL] | 0.06 |  | 0.5
